Molecules are shown by their SMILES.

What all share (type): in vivo
Series [1] deals with Beet Armyworm (Spodoptera exigua, LAPHEG). As to the kind of experiment: Insecticidal test for beet armyworm (BAW), 128-well diet tray assay. The following applies: 168 h, 50 μg/cm^2 of test compound on artificial diet, second instar larvae, 25° C., five to seven days, average of eight wells, read-out: BAW % Control (or Mortality) rating. As to the method: Insecticidal Test for Beet Armyworm (Spodoptera exigua, LAPHEG) (“BAW”)
(§1) Bioassays on beet armyworm (BAW; Spodoptera exigua: Lepidoptera) are conducted using a 128-well diet tray assay. One to five second instar BAW larvae are placed in each well (3 mL) of the diet tray that had been previously filled with 1 mL of artificial diet to which 50 μg/cm^2 of the test compound (dissolved in 50 μL of 90:10 acetone-water mixture) had been applied (to each of eight wells) and then allowed to dry. Trays are covered with a clear self-adhesive cover, vented to allow gas exchange, and held at 25° C., 14:10 light-dark for five to seven days. Percent mortality is recorded for the larvae in each well; activity in the eight wells is then averaged.

In series [2] the test system is Yellow Fever Mosquito (Aedes aegypti, AEDSAE). As to the kind of experiment: Insecticidal test for yellow fever mosquito (YFM), 96-well plate larval assay. The following applies: from 4000 ppm DMSO master solution, diluted; about 1 day-old larvae; room temperature; scored after 3 days. As to the method:
Insecticidal Test for Yellow Fever Mosquito (Aedes aegypti, AEDSAE) (“YFM”)
Master plates containing 400 μg of a molecule dissolved in 100 μL of dimethyl sulfoxide (DMSO) (equivalent to a 4000 ppm solution) are used. A master plate of assembled molecules contains 15 μL per well. To this plate, 135 μL of a 90:10 water/acetone mixture is added to each well. A robot (Biomek® NXP Laboratory Automation Workstation) is programmed to dispense 15 μL aspirations from the master plate into an empty 96-well shallow plate (“daughter” plate). There are 6 reps (“daughter” plates) created per master. The created “daughter” plates are then immediately infested with YFM larvae.
The day before plates are to be treated, mosquito eggs are placed in Millipore water containing liver powder to begin hatching (4 g. into 400 mL). After the “daughter” plates are created using the robot, they are infested with 220 μL of the liver powder/larval mosquito mixture (about 1 day-old larvae). After plates are infested with mosquito larvae, a non-evaporative lid is used to cover the plate to reduce drying. Plates are held at room temperature for 3 days prior to grading. After 3 days, each well is observed and scored based on mortality.

Series [3] has as its system Cabbage Looper (Trichloplusia Ni, TRIPNI). The experiment in a line: Insecticidal test for cabbage looper (CL), 128-well diet tray assay. The following applies: Trichoplusia ni, 168 h, read-out: CL % Control (or Mortality) rating. The protocol:
Insecticidal Test for Cabbage Looper (Trichloplusia Ni, TRIPNI) (“CL”)
as §1, with “cabbage looper (CL; Trichloplusia ni:” for “beet armyworm (BAW; Spodoptera exigua:”, “CL” for “BAW”

By mortality is commonly meant the share of the test organisms that died. `CC(Cc1ccc(NC(=O)Nc2ccc(OC(F)(F)F)cc2)cc1)NC(=O)/N=C1\SCC(=O)N1c1cc(Cl)ccc1C(C)C` (stereo not drawn) [Compound A35, (Z)-1-(4-(2-(3-(3-(5-Chloro-2-isopropylphenyl)-4-oxothiazolidin-2-ylidene)ureido)propyl)phenyl)-3-(4-(trifluoromethoxy)phenyl)urea]: the mortality at 50 µg/cm2 in series [1] and in series [3] was 50 to 100% in each case. The “YFM % Control (or Mortality) rating” value in series [2] is reported as “A (80-100)”.
Take `CC(Cc1ccc(NC(=O)Nc2ccc(OC(F)(F)F)cc2)cc1)NC(=O)/N=C1\SCC(=O)N1c1cc(Cl)ccc1OC(F)(F)F` (stereo not drawn) [Compound A36, (Z)-1-(4-(2-(3-(3-(5-Chloro-2-(trifluoromethoxy)phenyl)-4-oxothiazolidin-2-ylidene)ureido)propyl)phenyl)-3-(4-(trifluoromethoxy)phenyl)urea]: the mortality at 50 µg/cm2 in series [1] and in series [3] was 50 to 100% each time. Also, in series [2], the “YFM % Control (or Mortality) rating” value was “A (80-100)”.
`CCCc1ccc(OC)cc1N1C(=O)CS/C1=N\C(=O)NC(C)Cc1ccc(NC(=O)Nc2ccc(OC(F)(F)F)cc2)cc1` (stereo not drawn) [Compound A37, (Z)-1-(4-(2-(3-(3-(5-Methoxy-2-propylphenyl)-4-oxothiazolidin-2-ylidene)ureido)propyl)phenyl)-3-(4-(trifluoromethoxy)phenyl)urea]: the mortality at 50 µg/cm2 in series [1] and in series [3] was 50 to 100% in each case. For the same molecule, in series [2], the “YFM % Control (or Mortality) rating” value was “B (More than 0-Less than 80)”.
Turning to `Cc1ccc(OCC(F)(F)F)c(N2C(=O)CS/C2=N\C(=O)NC(C)Cc2ccc(NC(=O)Nc3ccc(OC(F)(F)F)cc3)cc2)c1` (stereo not drawn) [Compound A38, (Z)-1-(4-(2-(3-(3-(5-Methyl-2-(2,2,2-trifluoroethoxy)phenyl)-4-oxothiazolidin-2-ylidene)ureido)propyl)phenyl)-3-(4-(trifluoromethoxy)phenyl)urea], the mortality at 50 µg/cm2 in series [1] and in series [3] was 50 to 100% each time. The “YFM % Control (or Mortality) rating” value in series [2] is listed as “B (More than 0-Less than 80)”.
Consider `CCC(C)Oc1ccc(C)cc1N1C(=O)CS/C1=N\C(=O)NC(C)Cc1ccc(NC(=O)Nc2ccc(OC(F)(F)F)cc2)cc1` (stereo not drawn) [Compound A39, (Z)-1-(4-(2-(3-(3-(2-(sec-Butoxy)-5-methylphenyl)-4-oxothiazolidin-2-ylidene)ureido)propyl)phenyl)-3-(4-(trifluoromethoxy)phenyl)urea], for which the mortality at 50 µg/cm2 in series [1] and in series [3] was 50 to 100% throughout. Moreover, the “YFM % Control (or Mortality) rating” value in series [2] is given as “D (No activity noticed in this bioassay)”.
With `CCc1cccc(C)c1N1C(=O)CS/C1=N\C(=O)NC(C)Cc1ccc(NC(=O)Nc2ccc(OC(F)(F)F)cc2)cc1` (stereo not drawn) [Compound A40, (Z)-1-(4-(2-(3-(3-(2-Ethyl-6-methylphenyl)-4-oxothiazolidin-2-ylidene)ureido)propyl)phenyl)-3-(4-(trifluoromethoxy)phenyl)urea], the mortality at 50 µg/cm2 in series [1] and in series [3] was 50 to 100% in each case. Besides, the “YFM % Control (or Mortality) rating” value in series [2] is “A (80-100)”.
Take `Cc1cc(Cl)c(N2C(=O)CS/C2=N\C(=O)NC(C)Cc2ccc(NC(=O)Nc3ccc(OC(F)(F)F)cc3)cc2)cc1C` (stereo not drawn) [Compound A41, (Z)-1-(4-(2-(3-(3-(2-Chloro-4,5-dimethylphenyl)-4-oxothiazolidin-2-ylidene)ureido)propyl)phenyl)-3-(4-(trifluoromethoxy)phenyl)urea]: the mortality at 50 µg/cm2 in series [1] and in series [3] was 50 to 100% throughout. For the same molecule, in series [2], the “YFM % Control (or Mortality) rating” value is recorded as “B (More than 0-Less than 80)”.
As to `CC(Cc1ccc(NC(=O)Nc2ccc(OC(F)(F)F)cc2)cc1)NC(=O)/N=C1\SCC(=O)N1c1cccc2c1CCCC2` (stereo not drawn) [Compound A42, (Z)-1-(4-(2-(3-(4-Oxo-3-(5,6,7,8-tetrahydronaphthalen-1-yl)thiazolidin-2-ylidene)ureido)propyl)phenyl)-3-(4-(trifluoromethoxy)phenyl)urea], the mortality at 50 µg/cm2 in series [1] and in series [3] was 50 to 100% each time. Moreover, the “YFM % Control (or Mortality) rating” value in series [2] is listed as “A (80-100)”.
With `Cc1ccc(C(C)C)c(N2C(=O)CS/C2=N\C(=O)Nc2ccc(CNC(=O)Nc3ccc(OC(F)(F)F)cc3)cc2)c1` [Compound A43, (Z)-1-(4-(3-(3-(2-isopropyl-5-methylphenyl)-4-oxothiazolidin-2-ylidene)ureido)benzyl)-3-(4-(trifluoromethoxy)phenyl)urea], the mortality at 50 µg/cm2 in series [1] and in series [3] was 50 to 100% each time. In series [2], the “YFM % Control (or Mortality) rating” value is “A (80-100)”.
Consider `Cc1ccc(C(C)C)c(N2C(=O)CS/C2=N\C(=O)Nc2ccc(NC(=S)Nc3ccc(OC(F)(F)F)cc3)cc2)c1` [Compound A45, (Z)-1-(3-(2-isopropyl-5-methylphenyl)-4-oxothiazolidin-2-ylidene)-3-(4-(3-(4-(trifluoromethoxy)phenyl)thioureido)phenyl)urea], for which the mortality at 50 µg/cm2 in series [1] and in series [3] was 50 to 100% throughout. Also, in series [2], the “YFM % Control (or Mortality) rating” value was “A (80-100)”.
On to `Cc1ccc(C(C)C)c(N2C(=O)CS/C2=N\C(=O)NCCc2ccc(NC(=S)Nc3ccc(OC(F)(F)F)cc3)cc2)c1` [Compound A46, (Z)-1-(3-(2-isopropyl-5-methylphenyl)-4-oxothiazolidin-2-ylidene)-3-(4-(3-(4-(trifluoromethoxy)phenyl)thioureido)phenethyl)urea], for which the mortality at 50 µg/cm2 in series [1] and in series [3] was 50 to 100% throughout. Further, the “YFM % Control (or Mortality) rating” value in series [2] is “A (80-100)”.
For the molecule `Cc1ccc(C(C)C)c(N2C(=O)CS/C2=N\C(=O)Nc2ccc(CCNC(=S)Nc3ccc(OC(F)(F)F)cc3)cc2)c1` [Compound A47, (Z)-1-(3-(2-isopropyl-5-methylphenyl)-4-oxothiazolidin-2-ylidene)-3-(4-(2-(3-(4-(trifluoromethoxy)phenyl)thioureido)ethyl)phenyl)urea], the mortality at 50 µg/cm2 in series [1] and in series [3] was 50 to 100% throughout. In addition, the “YFM % Control (or Mortality) rating” value in series [2] was “A (80-100)”.
Turning to `Cc1ccc(C(C)C)c(N2C(=O)CS/C2=N\C(=O)Nc2ccc(NC(=O)c3ccc(OC(F)(F)F)cc3)cc2)c1` [Compound A48, (Z)—N-(4-(3-(3-(2-isopropyl-5-methylphenyl)-4-oxothiazolidin-2-ylidene)ureido)phenyl)-4-(trifluoromethoxy)benzamide], the mortality at 50 µg/cm2 in series [1] and in series [3] was 50 to 100% in each case. Further, the “YFM % Control (or Mortality) rating” value in series [2] is listed as “A (80-100)”.
Regarding `Cc1ccc(C(C)C)c(N2C(=O)CS/C2=N\C(=O)NCCc2ccc(NC(=O)c3ccc(OC(F)(F)F)cc3)cc2)c1` [Compound A49, (Z)—N-(4-(2-(3-(3-(2-isopropyl-5-methylphenyl)-4-oxothiazolidin-2-ylidene)ureido)ethyl)phenyl)-4-(trifluoromethoxy)benzamide], the mortality at 50 µg/cm2 in series [1] is 50 to 100%; in series [3] it was 0%. Further, the “YFM % Control (or Mortality) rating” value in series [2] is on record as “A (80-100)”.
For `Cc1ccc(C(C)C)c(N2C(=O)CS/C2=N\C(=O)Nc2ccc(CCNC(=O)c3ccc(OC(F)(F)F)cc3)cc2)c1` [Compound A50, (Z)—N-(4-(3-(3-(2-isopropyl-5-methylphenyl)-4-oxothiazolidin-2-ylidene)ureido)phenethyl)-4-(trifluoromethoxy)benzamide], in that order: 50 to 100%, 50 to 100% and “A (80-100)”.
In the same order, the values of `Cc1ccc(C(C)C)c(N2C(=O)CS/C2=N\C(=O)Nc2ccc(NS(=O)(=O)c3ccc(OC(F)(F)F)cc3)cc2)c1` [Compound A51, (Z)—N-(4-(3-(3-(2-isopropyl-5-methylphenyl)-4-oxothiazolidin-2-ylidene)ureido)phenyl)-4-(trifluoromethoxy)benzenesulfonamide] are 0%, 50 to 100% and “B (More than 0-Less than 80)”.

For the origin of these results see patent publication US11332452B2, “Pesticidal compositions and methods” (priority 2019, dated 2022).
